Test results published in patent publication US9051299B2, “Imidazolyl methyl piperidine T-type calcium channel antagonists” (Merck Sharp & Dohme Corp., priority 2012, dated 2015).

Legend:
[1] = target: T1, T-type calcium channel A1i (alpha-1I, CaV 3.3) (Homo sapiens, UniProt Q9P0X4); assay: FLIPR Ca2+ Flux Assay, hyperpolarized state; type: cell-based; details: measure of the ability to inhibit T-type calcium channel, read-out: Ali Hyperpolarized
T1 construct: expressed in transfected cells; host or cells: HEK 293 cells, tetracycline-inducible expression (Zeocin/Blasticidin selection)

[2] = target: T1, T-type calcium channel A1i (alpha-1I, CaV 3.3); assay: FLIPR Ca2+ Flux Assay, depolarized state; type: cell-based; details: measure of the ability to inhibit T-type calcium channel

T1 sequence (Q9P0X4 whole entry): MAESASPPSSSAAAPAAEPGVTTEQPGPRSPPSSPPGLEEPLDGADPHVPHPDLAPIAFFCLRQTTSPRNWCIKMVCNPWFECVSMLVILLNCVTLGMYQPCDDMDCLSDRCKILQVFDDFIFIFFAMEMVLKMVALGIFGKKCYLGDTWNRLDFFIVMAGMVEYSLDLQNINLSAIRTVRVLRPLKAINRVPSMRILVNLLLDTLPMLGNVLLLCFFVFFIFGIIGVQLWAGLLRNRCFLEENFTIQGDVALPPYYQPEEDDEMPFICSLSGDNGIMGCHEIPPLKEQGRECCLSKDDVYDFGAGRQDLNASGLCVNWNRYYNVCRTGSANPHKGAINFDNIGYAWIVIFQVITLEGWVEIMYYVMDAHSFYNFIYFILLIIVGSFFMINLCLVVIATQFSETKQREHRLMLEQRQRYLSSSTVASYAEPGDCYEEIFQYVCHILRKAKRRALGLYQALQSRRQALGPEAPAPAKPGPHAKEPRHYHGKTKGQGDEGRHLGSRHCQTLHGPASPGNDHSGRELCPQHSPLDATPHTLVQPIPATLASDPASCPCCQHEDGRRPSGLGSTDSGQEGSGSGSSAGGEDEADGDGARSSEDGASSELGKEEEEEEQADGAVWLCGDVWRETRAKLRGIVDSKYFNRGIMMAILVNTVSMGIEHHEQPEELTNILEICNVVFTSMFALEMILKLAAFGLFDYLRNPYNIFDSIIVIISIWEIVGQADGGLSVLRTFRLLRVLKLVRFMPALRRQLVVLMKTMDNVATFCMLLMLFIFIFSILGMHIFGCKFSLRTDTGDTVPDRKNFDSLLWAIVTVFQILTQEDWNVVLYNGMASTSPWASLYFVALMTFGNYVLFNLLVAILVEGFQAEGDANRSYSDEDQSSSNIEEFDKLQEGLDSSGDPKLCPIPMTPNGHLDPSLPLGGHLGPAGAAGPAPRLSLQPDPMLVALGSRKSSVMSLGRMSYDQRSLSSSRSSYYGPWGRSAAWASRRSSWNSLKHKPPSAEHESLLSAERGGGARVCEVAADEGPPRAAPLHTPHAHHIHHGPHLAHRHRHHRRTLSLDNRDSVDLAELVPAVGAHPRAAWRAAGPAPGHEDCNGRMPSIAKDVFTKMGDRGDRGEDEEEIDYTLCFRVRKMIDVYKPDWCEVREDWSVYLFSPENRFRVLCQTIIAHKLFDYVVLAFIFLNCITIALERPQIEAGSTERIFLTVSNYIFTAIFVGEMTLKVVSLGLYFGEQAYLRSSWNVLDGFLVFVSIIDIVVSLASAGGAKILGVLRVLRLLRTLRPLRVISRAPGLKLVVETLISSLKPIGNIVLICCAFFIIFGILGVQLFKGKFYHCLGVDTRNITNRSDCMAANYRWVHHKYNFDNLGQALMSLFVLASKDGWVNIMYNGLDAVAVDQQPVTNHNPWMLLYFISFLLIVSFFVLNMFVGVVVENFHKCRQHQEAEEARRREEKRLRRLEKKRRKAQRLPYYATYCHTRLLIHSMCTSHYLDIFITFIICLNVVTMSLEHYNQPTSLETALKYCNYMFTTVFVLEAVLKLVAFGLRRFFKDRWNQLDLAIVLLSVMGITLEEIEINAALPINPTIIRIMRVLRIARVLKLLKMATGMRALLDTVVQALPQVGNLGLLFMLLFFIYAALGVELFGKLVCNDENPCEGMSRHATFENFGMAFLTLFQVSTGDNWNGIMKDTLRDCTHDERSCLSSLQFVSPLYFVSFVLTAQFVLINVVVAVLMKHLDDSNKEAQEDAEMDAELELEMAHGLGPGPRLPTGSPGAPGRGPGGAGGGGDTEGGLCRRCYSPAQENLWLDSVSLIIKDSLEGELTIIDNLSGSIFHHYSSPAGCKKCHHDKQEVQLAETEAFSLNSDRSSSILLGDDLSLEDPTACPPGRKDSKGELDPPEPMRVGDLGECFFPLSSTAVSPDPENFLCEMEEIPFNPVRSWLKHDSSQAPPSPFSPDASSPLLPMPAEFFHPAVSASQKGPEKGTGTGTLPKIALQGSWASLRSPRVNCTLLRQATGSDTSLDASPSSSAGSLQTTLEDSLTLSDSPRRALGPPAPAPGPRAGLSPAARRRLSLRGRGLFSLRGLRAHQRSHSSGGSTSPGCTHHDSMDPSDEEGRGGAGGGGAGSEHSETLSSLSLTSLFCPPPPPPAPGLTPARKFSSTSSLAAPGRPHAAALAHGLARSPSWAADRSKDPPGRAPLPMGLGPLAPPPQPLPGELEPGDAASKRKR

SMILES: O=C(c1cccc(C(F)(F)F)c1)C1CCN(Cc2cnc(-c3ccccc3)[nH]2)CC1 [Example 1, (1-((2-Phenyl-1H-imidazol-5-yl)methyl)piperidin-4-yl)(3-(trifluoromethyl)phenyl)-methanone]
- IC50 [1]: 0.07 µM
- IC50 [2]: 0.742 µM

SMILES: O=C(c1ccc(F)cc1)C1CCN(Cc2c[nH]c(-c3ccccc3)n2)CC1 [Example 2]
- IC50 [1]: 0.242 µM
- IC50 [2]: 3.18 µM

SMILES: O=C(c1cccc(Cl)c1)C1CCN(Cc2c[nH]c(-c3ccccc3)n2)CC1 [Example 3, (3-chlorophenyl)-[1-[(2-phenyl-1H-imidazol-4-yl)methyl]-4-piperidyl]methanone]
- IC50 [1]: 0.129 µM
- IC50 [2]: 2.09 µM

SMILES: O=C(c1ccc2nonc2c1)C1CCN(Cc2c[nH]c(-c3ccccc3)n2)CC1 [Example 4, 2,1,3-benzoxadiazol-5-yl-[1-[(2-phenyl-1H-imidazol-4-yl)methyl]-4-piperidyl]methanone]
- IC50 [1]: 0.155 µM
- IC50 [2]: 2.87 µM

SMILES: O=C(c1ccc(F)c(F)c1)C1CCN(Cc2c[nH]c(-c3ccccc3)n2)CC1 [Example 5, (3,4-difluorophenyl)-[1-[(2-phenyl-1H-imidazol-4-yl)methyl]-4-piperidyl]methanone]
- IC50 [1]: 0.686 µM
- IC50 [2]: 4.06 µM

SMILES: COc1ccc(C(=O)C2CCN(Cc3c[nH]c(-c4ccccc4)n3)CC2)cc1 [Example 6, (4-methoxyphenyl)-[1-[(2-phenyl-1H-imidazol-4-yl)methyl]-4-piperidyl]methanone]
- IC50 [1]: 1.06 µM
- IC50 [2]: > 10 µM

SMILES: Cc1ccc(C(=O)C2CCN(Cc3c[nH]c(-c4ccccc4)n3)CC2)cc1 [Example 7, [1-[(2-phenyl-1H-imidazol-4-yl)methyl]-4-piperidyl]-(p-tolyl)methanone]
- IC50 [1]: 0.644 µM
- IC50 [2]: 7.09 µM

SMILES: Cc1cccc(C(=O)C2CCN(Cc3c[nH]c(-c4ccccc4)n3)CC2)c1 [Example 8, m-tolyl-[1-[(2-phenyl-1H-imidazol-4-yl)methyl]-4-piperidyl]methanone]
- IC50 [1]: 0.313 µM
- IC50 [2]: 4.62 µM

SMILES: Cc1nc(CN2CCC(C(=O)c3cccc(C(F)(F)F)c3)CC2)c[nH]1 [Example 9, [1-[(2-methyl-1H-imidazol-4-yl)methyl]-4-piperidyl]-[3-(trifluoromethyl)phenyl]methanone]
- IC50 [1]: 7.6 µM
- IC50 [2]: > 10 µM

SMILES: CCc1nc(C)c(CN2CCC(C(=O)c3cccc(C(F)(F)F)c3)CC2)[nH]1 [Example 10, [1-[(2-ethyl-4-methyl-1H-imidazol-5-yl)methyl]-4-piperidyl]-[3-(trifluoromethyl)phenyl]methanone]
- IC50 [1]: 6.9 µM
- IC50 [2]: > 10 µM
